The target in assay [1] is T1, Mu-type opioid receptor (Homo sapiens, UniProt P35372). The following applies: Compound concentration 10.0 uM.
Assay [2] addresses Dual specificity tyrosine-phosphorylation-regulated kinase 2 (Homo sapiens) (UniProt Q92630). In words: DYRK2 SGC Tm panel (DSF). The following applies: Compound concentration 20.0 uM.
Assay [3] concerns the target T2, Sigma intracellular receptor 2 (Homo sapiens, UniProt Q5BJF2). The note with it: Compound concentration 10.0 uM.
Assay [4] concerns the target Calcium/calmodulin-dependent protein kinase type 1G (Homo sapiens) (UniProt Q96NX5). In words: CAMK1G SGC Tm panel (DSF). The following applies: Compound concentration 20.0 uM.
In assay [5] the target is T2, Sigma intracellular receptor 2. The assay is described as follows: GPCRScan assay: inhibition of Sigma 2. Further details: radioligand conc. used [nm] 5.0, parental cells HEKT.
Assay [6] concerns the target Ephrin type-A receptor 5 (Homo sapiens) (UniProt P54756). In words: EPHA5 SGC Tm panel (DSF). The following applies: Compound concentration 20.0 uM.
Assay [7] concerns the target 5-hydroxytryptamine receptor 1D (Homo sapiens, UniProt P28221). The assay is described as follows: GPCRScan assay: inhibition of 5-HT1D. Further details: radioligand conc. used [nm] 1.0 – 2.0, parental cells HEKT.
The target in assay [8] is MAP/microtubule affinity-regulating kinase 3 (Homo sapiens) (UniProt P27448). The assay is described as follows: MARK3 SGC Tm panel (DSF). The note with it: Compound concentration 20.0 uM.
MAP/microtubule affinity-regulating kinase 3 (Homo sapiens), sequence (P27448 whole entry, looked up): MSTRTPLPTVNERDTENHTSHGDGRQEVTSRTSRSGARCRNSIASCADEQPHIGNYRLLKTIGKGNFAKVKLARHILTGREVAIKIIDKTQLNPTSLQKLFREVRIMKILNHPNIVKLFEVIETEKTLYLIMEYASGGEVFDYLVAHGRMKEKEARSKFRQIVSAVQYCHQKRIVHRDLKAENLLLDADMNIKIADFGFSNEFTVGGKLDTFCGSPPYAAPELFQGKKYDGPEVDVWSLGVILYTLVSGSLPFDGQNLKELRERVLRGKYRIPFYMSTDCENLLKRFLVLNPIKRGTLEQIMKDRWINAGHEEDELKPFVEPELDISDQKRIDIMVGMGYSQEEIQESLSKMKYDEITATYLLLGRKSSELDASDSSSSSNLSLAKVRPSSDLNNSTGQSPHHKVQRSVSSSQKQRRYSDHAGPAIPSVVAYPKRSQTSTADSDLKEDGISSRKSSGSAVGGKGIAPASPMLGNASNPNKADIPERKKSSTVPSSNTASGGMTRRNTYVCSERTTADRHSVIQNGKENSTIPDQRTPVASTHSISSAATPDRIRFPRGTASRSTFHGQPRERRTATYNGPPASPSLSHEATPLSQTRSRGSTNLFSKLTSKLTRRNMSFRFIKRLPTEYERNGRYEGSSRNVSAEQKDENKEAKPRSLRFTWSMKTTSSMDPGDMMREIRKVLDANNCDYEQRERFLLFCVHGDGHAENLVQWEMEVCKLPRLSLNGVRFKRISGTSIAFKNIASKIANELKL
For assay [9], the target named is Serine/threonine-protein kinase Nek1 (Homo sapiens) (UniProt Q96PY6). In words: NEK1 SGC Tm panel (DSF). The following applies: Compound concentration 20.0 uM.
The target of assay [10] is Serine/threonine-protein kinase PAK 4 (Homo sapiens) (UniProt O96013). In words: PAK4 SGC Tm panel (DSF). The following applies: Compound concentration 20.0 uM.
Assay [11] has as its target B-cell lymphoma 6 protein (Homo sapiens, UniProt P41182). The following applies: OCI-Ly1, Compound concentration 1.0 uM.
Assay [12] addresses Muscarinic acetylcholine receptor M2 (Homo sapiens) (UniProt P08172). The following applies: Compound concentration 10.0 uM.
Assay [13] concerns the target T1, Mu-type opioid receptor. In words: GPCRScan assay: inhibition of MOR. Further details: radioligand conc. used [nm] 1.0 – 2.0, parental cells stable HEK.
The target of assay [14] is T3, Zinc finger and BTB domain-containing protein 40 (Homo sapiens) (UniProt Q9NUA8).
T3 sequence (whole entry): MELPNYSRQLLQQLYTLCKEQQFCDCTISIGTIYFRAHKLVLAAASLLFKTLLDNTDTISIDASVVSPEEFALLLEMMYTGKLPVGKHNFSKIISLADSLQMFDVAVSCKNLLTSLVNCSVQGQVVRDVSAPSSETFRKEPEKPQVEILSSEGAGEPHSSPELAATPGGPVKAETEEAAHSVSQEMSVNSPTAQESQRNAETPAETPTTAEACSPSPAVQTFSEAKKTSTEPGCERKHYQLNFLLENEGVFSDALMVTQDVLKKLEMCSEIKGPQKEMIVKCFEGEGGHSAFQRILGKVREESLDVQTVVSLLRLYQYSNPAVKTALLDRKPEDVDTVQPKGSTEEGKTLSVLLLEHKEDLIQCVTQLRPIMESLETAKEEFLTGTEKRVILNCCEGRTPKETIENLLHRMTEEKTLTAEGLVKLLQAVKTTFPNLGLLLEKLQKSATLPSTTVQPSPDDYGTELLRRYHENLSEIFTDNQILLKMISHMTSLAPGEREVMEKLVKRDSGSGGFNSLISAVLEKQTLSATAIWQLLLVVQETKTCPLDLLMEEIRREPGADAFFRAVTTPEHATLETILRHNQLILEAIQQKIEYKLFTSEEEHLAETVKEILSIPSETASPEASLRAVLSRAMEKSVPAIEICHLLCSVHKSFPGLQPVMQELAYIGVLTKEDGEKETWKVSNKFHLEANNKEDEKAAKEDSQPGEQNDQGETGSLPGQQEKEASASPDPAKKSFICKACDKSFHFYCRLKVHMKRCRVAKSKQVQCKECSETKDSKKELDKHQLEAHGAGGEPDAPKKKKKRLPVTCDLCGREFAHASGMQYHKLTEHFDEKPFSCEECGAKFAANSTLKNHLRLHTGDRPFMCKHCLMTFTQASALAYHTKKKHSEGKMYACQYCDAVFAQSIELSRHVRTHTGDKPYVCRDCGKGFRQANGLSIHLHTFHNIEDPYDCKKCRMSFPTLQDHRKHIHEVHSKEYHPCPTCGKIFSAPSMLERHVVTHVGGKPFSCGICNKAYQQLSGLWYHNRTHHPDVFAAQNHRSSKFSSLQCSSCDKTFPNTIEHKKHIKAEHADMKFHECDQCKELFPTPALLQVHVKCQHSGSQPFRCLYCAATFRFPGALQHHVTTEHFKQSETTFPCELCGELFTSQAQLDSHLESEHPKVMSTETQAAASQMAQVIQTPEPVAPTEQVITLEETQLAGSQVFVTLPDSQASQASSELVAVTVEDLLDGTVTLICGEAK
The following applies: SUD4, Compound concentration 1.0 uM.

Assay [15] deals with Aurora kinase A (Homo sapiens) (UniProt O14965). The assay is described as follows: STK6 SGC Tm panel (DSF). The note with it: Compound concentration 20.0 uM.
Aurora kinase A (Homo sapiens), sequence (O14965 whole entry): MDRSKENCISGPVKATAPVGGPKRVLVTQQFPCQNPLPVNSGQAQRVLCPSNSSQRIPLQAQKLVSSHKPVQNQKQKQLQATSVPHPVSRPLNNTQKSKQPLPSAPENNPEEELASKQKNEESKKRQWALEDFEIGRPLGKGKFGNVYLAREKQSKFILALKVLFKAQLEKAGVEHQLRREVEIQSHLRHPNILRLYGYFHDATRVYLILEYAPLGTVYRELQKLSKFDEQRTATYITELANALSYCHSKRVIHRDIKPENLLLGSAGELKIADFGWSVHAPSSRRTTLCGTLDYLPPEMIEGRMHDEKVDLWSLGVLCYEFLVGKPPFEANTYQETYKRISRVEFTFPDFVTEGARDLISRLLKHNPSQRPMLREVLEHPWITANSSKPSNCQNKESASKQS
The target of assay [16] is Protein archease (Homo sapiens) (UniProt Q8IWT0). The note with it: SUD4, Compound concentration 1.0 uM.
Protein archease (Homo sapiens), sequence (Q8IWT0 whole entry): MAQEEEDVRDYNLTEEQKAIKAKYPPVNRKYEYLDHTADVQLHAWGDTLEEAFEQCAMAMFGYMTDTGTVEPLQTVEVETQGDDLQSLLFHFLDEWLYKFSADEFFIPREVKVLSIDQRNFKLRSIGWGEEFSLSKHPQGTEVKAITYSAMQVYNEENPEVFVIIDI
The target of assay [17] is T4, Telomere zinc finger-associated protein (Homo sapiens) (UniProt P10074).
T4 sequence (whole entry): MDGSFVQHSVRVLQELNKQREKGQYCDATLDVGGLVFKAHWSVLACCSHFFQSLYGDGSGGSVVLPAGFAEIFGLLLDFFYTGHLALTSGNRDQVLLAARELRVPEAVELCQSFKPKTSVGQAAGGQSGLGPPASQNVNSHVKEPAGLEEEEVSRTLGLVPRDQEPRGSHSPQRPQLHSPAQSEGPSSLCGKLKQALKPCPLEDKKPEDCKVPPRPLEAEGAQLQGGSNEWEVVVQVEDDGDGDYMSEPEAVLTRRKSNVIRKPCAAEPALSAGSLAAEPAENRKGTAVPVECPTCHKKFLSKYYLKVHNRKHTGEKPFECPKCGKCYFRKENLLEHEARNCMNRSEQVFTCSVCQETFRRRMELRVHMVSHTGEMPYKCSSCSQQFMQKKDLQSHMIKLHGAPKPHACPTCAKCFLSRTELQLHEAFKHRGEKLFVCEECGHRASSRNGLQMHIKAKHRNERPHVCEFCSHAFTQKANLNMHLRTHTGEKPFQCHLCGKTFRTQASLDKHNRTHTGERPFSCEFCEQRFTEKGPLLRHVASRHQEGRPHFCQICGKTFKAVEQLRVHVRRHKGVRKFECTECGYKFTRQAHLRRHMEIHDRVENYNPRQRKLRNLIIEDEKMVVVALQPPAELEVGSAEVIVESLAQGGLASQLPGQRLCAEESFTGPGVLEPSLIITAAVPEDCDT
The following applies: SUD4, Compound concentration 1.0 uM.

Usually inhibition stands for the drop in the measured response relative to a control, in per cent. The Tm is the temperature at which the thermal transition is half complete.

T1 sequence (P35372 whole entry): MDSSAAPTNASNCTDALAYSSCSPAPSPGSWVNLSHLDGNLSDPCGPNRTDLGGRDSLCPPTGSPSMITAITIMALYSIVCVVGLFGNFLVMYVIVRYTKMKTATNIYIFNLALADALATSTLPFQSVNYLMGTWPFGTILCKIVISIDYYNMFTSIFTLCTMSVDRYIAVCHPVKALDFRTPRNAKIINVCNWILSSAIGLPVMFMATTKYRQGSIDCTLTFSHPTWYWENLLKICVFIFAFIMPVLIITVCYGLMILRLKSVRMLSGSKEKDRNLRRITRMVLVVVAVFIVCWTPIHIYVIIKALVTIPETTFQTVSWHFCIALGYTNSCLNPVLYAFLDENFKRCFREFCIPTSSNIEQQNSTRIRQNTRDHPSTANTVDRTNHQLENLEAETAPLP
T2 sequence (Q5BJF2 whole entry): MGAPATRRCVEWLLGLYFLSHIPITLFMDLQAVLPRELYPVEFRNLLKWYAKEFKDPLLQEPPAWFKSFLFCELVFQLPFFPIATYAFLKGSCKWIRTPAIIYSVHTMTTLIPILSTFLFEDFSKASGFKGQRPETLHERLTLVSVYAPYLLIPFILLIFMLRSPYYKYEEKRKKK
Calcium/calmodulin-dependent protein kinase type 1G (Homo sapiens), sequence (Q96NX5 whole entry): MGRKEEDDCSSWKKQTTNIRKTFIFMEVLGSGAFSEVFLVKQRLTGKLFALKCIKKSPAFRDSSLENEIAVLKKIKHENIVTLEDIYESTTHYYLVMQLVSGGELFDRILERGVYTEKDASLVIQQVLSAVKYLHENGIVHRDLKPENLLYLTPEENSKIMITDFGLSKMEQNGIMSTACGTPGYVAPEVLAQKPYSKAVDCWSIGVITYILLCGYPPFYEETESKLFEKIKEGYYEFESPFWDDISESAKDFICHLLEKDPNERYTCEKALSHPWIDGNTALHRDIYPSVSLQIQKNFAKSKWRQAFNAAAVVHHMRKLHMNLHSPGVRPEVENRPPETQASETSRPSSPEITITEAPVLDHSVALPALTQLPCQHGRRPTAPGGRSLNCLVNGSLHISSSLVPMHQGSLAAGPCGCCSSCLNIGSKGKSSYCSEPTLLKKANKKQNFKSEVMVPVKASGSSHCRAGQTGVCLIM
Dual specificity tyrosine-phosphorylation-regulated kinase 2 (Homo sapiens), sequence (Q92630 whole entry): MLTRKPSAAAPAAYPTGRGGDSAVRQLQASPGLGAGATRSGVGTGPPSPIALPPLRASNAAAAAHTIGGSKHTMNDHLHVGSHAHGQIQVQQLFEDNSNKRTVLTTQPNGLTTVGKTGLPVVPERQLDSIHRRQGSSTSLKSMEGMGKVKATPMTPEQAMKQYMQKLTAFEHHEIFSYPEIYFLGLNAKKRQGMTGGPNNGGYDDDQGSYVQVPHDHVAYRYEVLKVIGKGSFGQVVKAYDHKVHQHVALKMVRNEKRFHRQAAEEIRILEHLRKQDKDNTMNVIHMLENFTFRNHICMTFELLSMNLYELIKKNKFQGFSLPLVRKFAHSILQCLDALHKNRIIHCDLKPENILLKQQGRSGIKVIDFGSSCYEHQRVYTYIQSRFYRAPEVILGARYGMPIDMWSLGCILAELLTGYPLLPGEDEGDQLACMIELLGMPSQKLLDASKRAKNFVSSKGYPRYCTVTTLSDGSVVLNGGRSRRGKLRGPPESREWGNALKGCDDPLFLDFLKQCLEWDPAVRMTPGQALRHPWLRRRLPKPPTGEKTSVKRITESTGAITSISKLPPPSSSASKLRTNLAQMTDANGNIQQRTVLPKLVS
Ephrin type-A receptor 5 (Homo sapiens), sequence (P54756 whole entry): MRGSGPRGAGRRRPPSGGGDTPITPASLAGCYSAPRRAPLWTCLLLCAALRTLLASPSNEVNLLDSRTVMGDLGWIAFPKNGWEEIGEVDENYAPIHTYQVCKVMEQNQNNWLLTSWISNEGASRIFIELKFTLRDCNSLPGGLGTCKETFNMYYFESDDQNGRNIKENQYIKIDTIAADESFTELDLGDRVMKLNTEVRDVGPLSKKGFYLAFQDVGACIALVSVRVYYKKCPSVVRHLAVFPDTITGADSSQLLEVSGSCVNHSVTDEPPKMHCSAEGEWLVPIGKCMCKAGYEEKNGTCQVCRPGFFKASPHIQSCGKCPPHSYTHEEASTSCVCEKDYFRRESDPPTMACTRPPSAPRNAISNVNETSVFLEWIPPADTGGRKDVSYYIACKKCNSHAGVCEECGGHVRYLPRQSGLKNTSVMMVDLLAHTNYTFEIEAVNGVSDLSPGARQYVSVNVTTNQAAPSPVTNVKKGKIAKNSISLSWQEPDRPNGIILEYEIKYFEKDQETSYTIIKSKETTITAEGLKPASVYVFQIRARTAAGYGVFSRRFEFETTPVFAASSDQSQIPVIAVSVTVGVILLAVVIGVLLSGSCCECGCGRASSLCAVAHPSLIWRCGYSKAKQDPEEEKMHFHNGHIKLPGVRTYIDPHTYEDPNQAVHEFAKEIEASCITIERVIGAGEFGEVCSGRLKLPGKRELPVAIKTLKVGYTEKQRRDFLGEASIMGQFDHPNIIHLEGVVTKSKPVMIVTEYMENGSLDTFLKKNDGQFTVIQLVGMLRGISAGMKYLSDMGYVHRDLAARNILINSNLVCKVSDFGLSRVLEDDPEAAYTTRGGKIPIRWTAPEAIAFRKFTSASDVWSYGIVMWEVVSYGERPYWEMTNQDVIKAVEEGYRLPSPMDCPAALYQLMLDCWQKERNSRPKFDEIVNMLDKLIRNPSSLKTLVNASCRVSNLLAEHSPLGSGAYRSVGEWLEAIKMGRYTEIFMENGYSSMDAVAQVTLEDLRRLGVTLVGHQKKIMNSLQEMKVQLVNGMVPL
Muscarinic acetylcholine receptor M2 (Homo sapiens), sequence (P08172 whole entry): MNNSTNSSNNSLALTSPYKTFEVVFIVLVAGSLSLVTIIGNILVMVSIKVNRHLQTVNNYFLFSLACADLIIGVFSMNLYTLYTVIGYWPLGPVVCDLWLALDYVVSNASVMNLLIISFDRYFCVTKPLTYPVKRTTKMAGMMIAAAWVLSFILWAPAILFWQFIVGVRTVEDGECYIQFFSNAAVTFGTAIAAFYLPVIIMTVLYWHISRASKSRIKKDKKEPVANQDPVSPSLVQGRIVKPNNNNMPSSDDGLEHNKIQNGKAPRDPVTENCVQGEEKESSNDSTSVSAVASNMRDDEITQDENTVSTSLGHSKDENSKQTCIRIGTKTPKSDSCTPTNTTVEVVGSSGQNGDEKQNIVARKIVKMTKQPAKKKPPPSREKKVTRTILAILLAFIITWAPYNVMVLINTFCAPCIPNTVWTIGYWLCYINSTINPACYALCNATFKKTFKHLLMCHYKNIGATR
5-hydroxytryptamine receptor 1D, sequence (P28221 whole entry): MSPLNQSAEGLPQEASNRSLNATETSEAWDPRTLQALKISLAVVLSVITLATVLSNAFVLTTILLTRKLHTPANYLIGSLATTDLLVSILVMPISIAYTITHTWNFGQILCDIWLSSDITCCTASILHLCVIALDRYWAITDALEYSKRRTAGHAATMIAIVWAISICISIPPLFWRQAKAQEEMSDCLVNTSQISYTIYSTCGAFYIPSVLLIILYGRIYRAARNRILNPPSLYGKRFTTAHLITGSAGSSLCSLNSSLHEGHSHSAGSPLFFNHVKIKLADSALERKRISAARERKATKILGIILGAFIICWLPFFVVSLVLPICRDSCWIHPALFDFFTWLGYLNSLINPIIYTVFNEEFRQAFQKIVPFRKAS

Take `C[C@@H]1CN(c2ncc(Cl)c(Nc3ccc4c(c3)n(CCC(C)(C)O)c(=O)n4C)n2)C[C@H](C)C1(F)F`: the inhibition at Mu-type opioid receptor [1] was 86.6%; in assay [3] it was 85.7%; in assay [12], 0.77%. The Tm in assay [2] is 46 °C; in [4], 44 °C; in [6], 44 °C; in [8], 35 °C; in assay [9], 47 °C; in [10], 46 °C. In addition, the Tm in [15] is 45 °C. Further, the Ki is 2500 nM in assay [5], 6170 nM in assay [7], 872 nM at Mu-type opioid receptor [13] (read-out: Ki) and 851 nM on Mu-type opioid receptor [13] (read-out: pKi (converted)). For the same molecule, the LogFC is -2.79 in assay [11], 0.0845 in [14], 0.104 in [16] and -0.0152 in assay [17].

The values above are taken from ChEMBL document CHEMBL5058646 (2022).
